The source of these data is article PMC8623647 (Pharmaceuticals, 2021).

For series [1], the target named is MAO-B. Details: method as in PMID 28577983. As to conditions: methoxylated chalcones previously reported ref 30; cited from earlier work.
The target of series [2] is T1, MAO-B (Homo sapiens, UniProt P27338).
T1 sequence (P27338 1-520): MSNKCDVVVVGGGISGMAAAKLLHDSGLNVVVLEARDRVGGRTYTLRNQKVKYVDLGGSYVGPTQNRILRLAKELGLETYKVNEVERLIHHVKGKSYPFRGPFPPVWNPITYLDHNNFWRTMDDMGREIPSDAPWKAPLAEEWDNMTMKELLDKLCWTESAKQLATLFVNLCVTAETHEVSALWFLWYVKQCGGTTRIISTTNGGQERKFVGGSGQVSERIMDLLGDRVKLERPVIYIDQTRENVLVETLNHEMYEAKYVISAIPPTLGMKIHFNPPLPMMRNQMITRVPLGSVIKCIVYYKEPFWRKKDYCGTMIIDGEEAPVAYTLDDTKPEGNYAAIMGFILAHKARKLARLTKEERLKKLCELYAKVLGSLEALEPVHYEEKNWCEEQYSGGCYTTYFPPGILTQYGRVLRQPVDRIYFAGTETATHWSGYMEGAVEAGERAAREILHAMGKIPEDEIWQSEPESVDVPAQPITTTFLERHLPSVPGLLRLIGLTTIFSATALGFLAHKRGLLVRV
As to the kind of experiment: Reversibility of MAO-B inhibition by dialysis. It counts as biochemical. As to conditions: for MAO-B activity of dialyzed sample (AD): after dialysis; for MAO-B activity of dialyzed sample (AD) / MAO-B activity of undialyzed sample (AU): test compounds […], lazabemide 0.20 µM, pargyline 0.30 µM; for MAO-B activity of undialyzed sample (AU): preincubated 30 min. As for the experimental part:
The reversibilities of MAO-B inhibitions by TM1 and TM8 were assessed by dialysis. […] Reversibility patterns were determined by comparing the activities of dialyzed (AD) and undialyzed (AU) samples.

Series [3] can be described thus: BBB permeation by parallel artificial membrane permeability assay (PAMPA). The conditions noted are these: for Prediction (BBB permeation): PAMPA-BBB class from Pe; for Papp: PAMPA-BBB, read-out: Experimental Pe. It counts as in vitro ADME.
Text: The CNS bioavailability of the lead candidates was further ascertained by PAMPA method [31].
Series [4] concerns the target T1, MAO-B. Briefly: MAO-B enzyme inhibition (benzylamine substrate, 250 nm). The conditions noted are these: for SI (hMAO-B selectivity index): IC50(hMAO-A) divided by IC50(hMAO-B); for Times more potent than pargyline (MAO-B) / Times more potent than the reference drug lazabemide (MAO-B): ratio of MAO-B IC50 values; for remaining activity at 10 µM: read-out: Residual Activity at 10 µM (%) MAO-B.
Experimental: (§5) MAO activity assays were performed using recombinant human MAO-A or MAO-B.
(§6) IC50 values were determined by measuring residual enzyme activities.

The target of series [5] is T2, recombinant human MAO-A (Homo sapiens, UniProt P21397).
T2 sequence (P21397 1-527): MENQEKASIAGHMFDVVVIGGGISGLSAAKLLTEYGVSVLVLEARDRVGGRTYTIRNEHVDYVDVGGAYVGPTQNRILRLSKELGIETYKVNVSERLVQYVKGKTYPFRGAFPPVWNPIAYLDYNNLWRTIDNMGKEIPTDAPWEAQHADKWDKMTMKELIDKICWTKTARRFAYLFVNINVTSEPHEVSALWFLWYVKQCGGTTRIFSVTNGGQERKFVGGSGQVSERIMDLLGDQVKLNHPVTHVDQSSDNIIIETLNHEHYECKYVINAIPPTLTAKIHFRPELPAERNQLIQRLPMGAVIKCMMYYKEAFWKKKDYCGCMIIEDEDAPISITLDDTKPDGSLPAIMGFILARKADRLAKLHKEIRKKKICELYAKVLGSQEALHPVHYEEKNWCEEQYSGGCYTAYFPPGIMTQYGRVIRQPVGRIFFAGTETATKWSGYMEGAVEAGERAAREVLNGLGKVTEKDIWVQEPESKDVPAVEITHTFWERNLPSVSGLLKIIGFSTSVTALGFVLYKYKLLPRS
As to the kind of experiment: MAO-A enzyme inhibition (kynuramine substrate, 316 nm). The conditions noted are these: for remaining activity at 10 µM: read-out: Residual Activity at 10 µM (%) MAO-A.
Experimental: as §5, §6

The subject of series [6] is Vero cells. As to the kind of experiment: ROS assay (H2O2-induced ROS levels). It counts as cell-based, African Green Monkey. The conditions noted are these: compound at its IC50 value, exogenous H2O2. On the procedure: ROS increase vulnerability to neuronal damage by causing oxidative damage in the brain during neurodegenerative diseases.
(§1) The cytotoxicities and ROS quenching abilities of the two lead compounds (TM1 and TM8) were evaluated as previously described.
Figure 6 Effects of TM1 (a) and TM8 (b) on H2O2-induced ROS levels. Vero cells (1 × 10^6 cells/mL) were pre-incubated with 100 μg/mL of 30% H2O2 and ROS production was evaluated immediately as described in Section 4.

The nature of series [7]: Cytotoxicity by MTT assay. It counts as cell-based, African Green Monkey. The conditions noted are these: African green monkey, Vero cells (kidney); Vero cells treated at effective concentrations; read-out: Cells remaining viable. As for the experimental part:
(§2) African Green Monkey kidney cells (VERO cells) were used to evaluate the cytotoxic effects of TM1 and TM8. Cells were incubated with different doses (1 µg/mL to 500 µg/mL) of the two compounds for 48 h, and relative cell viabilities were determined by MTT assay.
as §1
(§3) Figure 4 Effect of TM1 on Vero cell viability. (a) cell viability treated with TM1; (b) dose-response curve; (c) phase contrast microscope images of Vero cells treated with different concentrations of TM1. Cells were treated with TM1 for 48 h and cell viabilities were assessed by MTT assay as described in Section 4.
(§4) Figure 5 Effect of TM8 on Vero cell viability. (a) cell viability treated with TM8; (b) dose-response curve; (c) phase contrast microscope images of Vero cells treated with different concentrations of TM8. Cells were treated with TM8 for 48 h and cell viabilities were assessed by MTT assay as described in Section 4.
A general note: Formazan colour is commonly taken as a measure of viable cells.

Series [8] has as its system Vero cells. Briefly: Cytotoxicity by MTT assay. Type of series: cell-based, African Green Monkey. As to conditions: Chlorocebus sabaeus, Vero, 48 h, MTT assay, read-out: IC50 for Vero cell viability. As for the experimental part: as §2, §1, §3, §4

Structures are written as SMILES. Where “and” joins values, the source holds several entries; their conditions need not be identical. Identical values can stand only once. Entries after “also recorded” stand apart in the source; their conditions may differ. Like-named read-outs stand apart in the source and are kept apart here.

For orientation: Ki means the equilibrium dissociation constant of an inhibitor or competing ligand from its target. For `COc1ccc(C(=O)/C=C/c2ccccc2)cc1` [Compound C1], in series [1], the Ki was 0.7 ± 0.05 µM and the “SI for MAO-B” value is 5.07.
For the molecule `COc1ccc(C(=O)/C=C/c2ccc(Cl)cc2)cc1` [Compound C8], the “SI for MAO-B” value in series [1] is 3.89.
For the molecule `NCCNC(=O)c1ccc(Cl)cn1` [Lazabemide, reference compound], in series [2], the “MAO-B activity of dialyzed sample (AD)” value worked out at 74.9% and the “MAO-B activity of undialyzed sample (AU)” value stood at 16.6%.
Regarding `CCn1cc(C(=O)O)c(=O)c2cc(F)c(N3CCNC(C)C3)c(F)c21` (stereo not shown) [Lomefloxacin, reference compound], in series [3], the “Prediction (BBB permeation)” value was “CNS− (CNS− (low BBB permeation predicted): Pe (10^−6 cm·s^−1) < 2.00)” and the Papp is 1.22 ± 0.02 ×10⁻⁶ cm/s.
As to `CC(=O)[C@H]1CC[C@H]2[C@@H]3CCC4=CC(=O)CC[C@]4(C)[C@H]3CC[C@]12C` [Progesterone, reference compound], in series [3], the “Prediction (BBB permeation)” value is “CNS+ (CNS+ (high BBB permeation predicted): Pe (10^−6 cm·s^−1) > 4.00)”.
The term IC50 denotes the point on the concentration scale where inhibition reaches its midpoint. Consider `CSc1ccc(C(=O)/C=C/c2ccc(O)cc2)cc1` [TM2], for which, in series [4], the IC50 stood at 0.021 ± 0.003 µM, the “SI (hMAO-B selectivity index)” value was 354.8, the “Times more potent than pargyline (MAO-B)” value came to 1.3 times and the “Times more potent than the reference drug lazabemide (MAO-B)” value turned out to be 3.0 times. In addition, the remaining activity at 10 µM in series [4] is -5.7 ± 5.3%. Besides, in series [5], the IC50 worked out at 7.45 ± 0.25 µM and the remaining activity at 10 µM was 48.3 ± 2.4%. In series [3], the “Prediction (BBB permeation)” value is “CNS+ (CNS+ (high BBB permeation predicted): Pe (10^−6 cm·s^−1) > 4.00)” and the Papp was 13.3 ± 0.8 ×10⁻⁶ cm/s.
As to `COc1ccc(/C=C/C(=O)c2ccc(SC)cc2)cc1` [TM3], in series [4], the IC50 is 0.088 ± 0.011 µM, the “SI (hMAO-B selectivity index)” value is 100.2 and the remaining activity at 10 µM came to 6.9%. For the same molecule, in series [5], the IC50 was found to be 8.82 ± 0.09 µM and the remaining activity at 10 µM amounted to 44.6 ± 1.9%.
`CSc1ccc(C(=O)/C=C/c2ccc(C)cc2)cc1` [TM4]: in series [4], the IC50 was 0.058 ± 0.001 µM, the “SI (hMAO-B selectivity index)” value is listed as 206.9, the “Times more potent than the reference drug lazabemide (MAO-B)” value came out at 1.1 times and the remaining activity at 10 µM turned out to be 14.7 ± 2.8%. Further, in series [5], the IC50 amounted to 12 ± 0.99 µM and the remaining activity at 10 µM is 71.6 ± 3.8%.
Take `CSc1ccc(C(=O)/C=C/c2ccc(N(C)C)cc2)cc1` [TM5]: in series [4], the IC50 was found to be 0.12 ± 0.011 µM, the “SI (hMAO-B selectivity index)” value turned out to be 49.3 and the remaining activity at 10 µM was determined as 1.6 ± 1.1%. Moreover, in series [5], the IC50 was 5.91 ± 0.87 µM and the remaining activity at 10 µM turned out to be 47.9 ± 3.7%.
For `CCc1ccc(/C=C/C(=O)c2ccc(SC)cc2)cc1` [TM6] the same measures were 0.13 ± 0.005 µM, 51.6, -9.5%, 6.71 ± 0.75 µM and 49.4 ± 8.7%.
With `CSc1ccc(C(=O)/C=C/c2ccc([N+](=O)[O-])cc2)cc1` [TM7], in series [4], the IC50 was determined as 0.023 ± 0.001 µM; the “SI (hMAO-B selectivity index)” value is 1304 and 1304.3; the “Times more potent than pargyline (MAO-B)” value is “almost as potent as pargyline”; the “Times more potent than the reference drug lazabemide (MAO-B)” value is 2.7 times. Further, the remaining activity at 10 µM in series [4] is 6 ± 1.9%. In series [5], the IC50 came to 30 ± 3.02 µM and the remaining activity at 10 µM worked out at 66.1 ± 2.6%. Also, in series [3], the “Prediction (BBB permeation)” value is given as “CNS+ (CNS+ (high BBB permeation predicted): Pe (10^−6 cm·s^−1) > 4.00)” and the Papp came out at 15.5 ± 0.71 ×10⁻⁶ cm/s.
Regarding `CSc1ccc(C(=O)/C=C/c2ccc(Cl)cc2)cc1` [TM8], the “Effect on H2O2-induced intracellular ROS levels” value in series [6] is recorded as “significantly reduced reactive oxygen species (ROS) levels; also recorded: appreciably lower ROS levels; also recorded: mitigated H2O2-induced increases in ROS levels”. Besides, the viability at 48 h in series [7] is more than 90%. Also, the IC50 in series [8] (converted from µg/mL) was 402 µM. In addition, the IC50 in series [8] came to 116 µg/mL. In addition, in series [4], half-maximal inhibition (IC50) was put at 0.01 ± 0.005 µM, the “Times more potent than pargyline (MAO-B)” value is 2.8 times, the “Times more potent than the reference drug lazabemide (MAO-B)” value is 6.3 times and the remaining activity at 10 µM amounted to 4.1 ± 0.5%. In series [5], the IC50 was determined as 48.6 ± 3.44 µM and the remaining activity at 10 µM worked out at 77.4 ± 8.2%. Moreover, in series [3] (PAMPA), the “Blood-brain barrier permeability in words” value was “high blood-brain barrier permeabilities”. For the same molecule, in series [3], the “Prediction (BBB permeation)” value is “CNS+ (CNS+ (high BBB permeation predicted): Pe (10^−6 cm·s^−1) > 4.00)” and the Papp was found to be 16.3 ± 0.26 ×10⁻⁶ cm/s. Further, in series [2], the “MAO-B activity of dialyzed sample (AD)” value worked out at 69.3% and the “MAO-B activity of undialyzed sample (AU)” value was determined as 33.1%. In series [2] (dialysis-based method), the “Reversibility of MAO-B inhibition” value is listed as “reversible MAO-B inhibitors”.
`CSc1ccc(C(=O)/C=C/c2ccc(Br)cc2)cc1` [TM9]: in series [4], inhibition was half-maximal at 0.088 ± 0.006 µM (IC50), the “SI (hMAO-B selectivity index)” value stood at 381.8 and the remaining activity at 10 µM was 7.5 ± 2.1%. For the same molecule, in series [5], the IC50 turned out to be 33.6 ± 2.56 µM and the remaining activity at 10 µM is 74.7%.
On to `CSc1ccc(C(=O)/C=C/c2ccc(F)cc2)cc1` [TM10], for which, in series [4], the IC50 is 0.026 ± 0.004 µM, the “SI (hMAO-B selectivity index)” value worked out at 526.9, the “Times more potent than pargyline (MAO-B)” value is “almost as potent as pargyline” and the “Times more potent than the reference drug lazabemide (MAO-B)” value was determined as 2.4 times. The remaining activity at 10 µM in series [4] was -0.4 ± 2.7%. Also, in series [5], the IC50 worked out at 13.7 ± 1.22 µM and the remaining activity at 10 µM stood at 57.9 ± 6%. Moreover, in series [3], the “Prediction (BBB permeation)” value is given as “CNS+ (CNS+ (high BBB permeation predicted): Pe (10^−6 cm·s^−1) > 4.00)” and the Papp worked out at 15.2 ± 0.44 ×10⁻⁶ cm/s.
Regarding `CSc1ccc(C(=O)/C=C/c2ccc(C(F)(F)F)cc2)cc1` [TM11], in series [4], the midpoint of inhibition, the IC50, lay at 0.081 ± 0.032 µM; the “SI (hMAO-B selectivity index)” value turned out to be 311.1; the remaining activity at 10 µM is 7.4 ± 1.2%. Moreover, in series [5], the IC50 was determined as 25.2 ± 0.14 µM and the remaining activity at 10 µM was determined as 79.5 ± 0.7%.
